# From BindingDB's records for doi:10.1021/jm049768a (Eli Lilly, 2004)
# Target: 3-phosphoinositide-dependent protein kinase 1 (Homo sapiens) (UniProt O15530)
# Assay: Inhibition of human PDK-1
row,Structure (SMILES),IC50
1,"O=C1NC(=O)C(c2cnc3ccccn23)=C1c1cn2c3c(cccc13)CN(C(=O)N1CCCCC1)CC2 [3-Imidazo[1,2-a]pyridin-3-yl-4-[2-(piperidine-1-carbonyl)-1,2,3,4-tetrahydro-[1,4]diazepino[6,7,1-hi]indol-7-yl]-pyrrole-2,5-dione]",4.3 µM
2,"CN(C)C(=O)N1CCn2cc(C3=C(c4cnc5ccccn45)C(=O)NC3=O)c3cccc(c32)C1 [7-(4-Imidazo[1,2-a]pyridin-3-yl-2,5-dioxo-2,5-dihydro-1H-pyrrol-3-yl)-3,4-dihydro-1H-[1,4]diazepino[6,7,1-hi]indole-2-carboxylic acid dimethylamide]",> 20 µM
3,"CC(C)OC(=O)N1CCn2cc(C3=C(c4cnc5ccccn45)C(=O)NC3=O)c3cccc(c32)C1 [7-(4-Imidazo[1,2-a]pyridin-3-yl-2,5-dioxo-2,5-dihydro-1H-pyrrol-3-yl)-3,4-dihydro-1H-[1,4]diazepino[6,7,1-hi]indole-2-carboxylic acid isopropyl ester]",6.5 µM
